The text below walks through data of patent US9475824B2, “Fused pyrimidines as inhibitors of p97 complex” (Cleave Biosciences, Inc., priority 2012, dated 2016).

Structures are written as SMILES. A value given as a limit tells only on which side of the number the result lay.

Data set [1] has as its system Caco-2 cell monolayer.
A short description of data set [2]: in vitro. The note with it: human, Caco-2, pH 7.4.
The target of data set [3] is p97 (Homo sapiens, UniProt P55072). Description: P97 ATPase biochemical assay (ADP Glo). The settings on record: 20 nM p97, 20 μM ATP, 37° C. 15 minutes. As to the method: The ATPase assay is performed according the following protocol: Purified enzyme (20 nM p97), substrate (20 μM ATP) and a dose titration of compounds are mixed in buffer (50 mM TRIS pH 7.5, 20 mM MgCl2, 0.02% TX-100, 1 mM DTT, 0.2% (v/v) glycerol) and incubated at 37° C. for 15 minutes. The reaction is terminated and the level of product generated is measured using the ADP Glo Assay Kit (Promega, Madison Wis.). Plotting product generated versus compound concentration and using a four-parameter fit model generates an IC50 value for each compounds.
The p97 assay is an initial screening assay used to determine inhibitory activity of the fused pyrimidine compounds of the invention against the p97 complex. As discussed above, inhibition of activity of the p97 proteosome complex can enable apoptosis and cause elimination of neoplastic cells (cancer cells). The method follows that of Christianson in Nat.
Assay Buffer is a mixture of 50 mM TRIS pH 7.5, 20 mM MgCl2, 0.02% TX-100, 1 mM DTT and 0.2% (v/v) Glycerol. […] The identification kit is an ADP glo kit (Promega): stop buffer, detection reagent.
0.5 μL compound serial diluted in DMSO (Final Conc. 10%)
2 μL ATP (Final Conc.=20 uM, diluted in assay buffer)
2.5 μL p97 (Final Conc.=20 nM, diluted in assay buffer)
Incubate at 37 degC for 15 min.
Add 5 μL of stop buffer, incubate at RT for 40 min.
Add 10 μL of detection reagent, incubate at RT for 30 min.
Read luminescence on Envision plate reader.
Plot normalized luminescence data against log-transformed concentration values and fit to a sigmoidal curve to determine IC50 values (done in Collaborative Drug Discovery software).
On the technique in general: ADP-Glo first removes unused ATP, then detects ADP through luciferase.

In data set [4] the test system is K48-Ub, A549 cells. Description: A549 K48 cell intensity (immunofluorescence, high content imaging). The settings on record: Homo sapiens, 6 hr compound incubation. The data set is classed as cell-based. The method, then:
Image-analysis is used to generate quantitative data from these assays that can be fit to a four-parameter sigmoid curve to derive IC50 values. Substrates of the ubiquitin-proteasome system, such as p53, are monitored after tumor cell lines are incubated with compounds for several hours. Accumulation of these proteins indicates an inhibition of proteasome-mediated degradation. Accumulation of lysine-48 chain linkage of poly-ubiquitin is also monitored by immunofluorescence as an indicator of ubiquitin-proteasome system inhibition. Both LC3 and SQSTM1 are mediators of autophagy. The localization and amounts of these proteins are monitored by immunofluorescence and report on the activity and inhibition of autophagy in response to p97 inhibition.
Day 1, Cell Plating to Establish Colonies of Cancer Cells • Cell Plating: • Seed cells ˜16 hrs prior to compound treatment • Plate 25 μL of A549 cells in every well of 384-well plate using multidrop. • Two (2) black plates for IF at 2500 cells/well • Let plate sit at room temp for 10-15 minutes prior to putting in incubator to allow cells to stick in middle of plate. • One (1) white plate for viability at 500 cells/well.

p97, sequence (P55072 whole entry, the tested form may be a part): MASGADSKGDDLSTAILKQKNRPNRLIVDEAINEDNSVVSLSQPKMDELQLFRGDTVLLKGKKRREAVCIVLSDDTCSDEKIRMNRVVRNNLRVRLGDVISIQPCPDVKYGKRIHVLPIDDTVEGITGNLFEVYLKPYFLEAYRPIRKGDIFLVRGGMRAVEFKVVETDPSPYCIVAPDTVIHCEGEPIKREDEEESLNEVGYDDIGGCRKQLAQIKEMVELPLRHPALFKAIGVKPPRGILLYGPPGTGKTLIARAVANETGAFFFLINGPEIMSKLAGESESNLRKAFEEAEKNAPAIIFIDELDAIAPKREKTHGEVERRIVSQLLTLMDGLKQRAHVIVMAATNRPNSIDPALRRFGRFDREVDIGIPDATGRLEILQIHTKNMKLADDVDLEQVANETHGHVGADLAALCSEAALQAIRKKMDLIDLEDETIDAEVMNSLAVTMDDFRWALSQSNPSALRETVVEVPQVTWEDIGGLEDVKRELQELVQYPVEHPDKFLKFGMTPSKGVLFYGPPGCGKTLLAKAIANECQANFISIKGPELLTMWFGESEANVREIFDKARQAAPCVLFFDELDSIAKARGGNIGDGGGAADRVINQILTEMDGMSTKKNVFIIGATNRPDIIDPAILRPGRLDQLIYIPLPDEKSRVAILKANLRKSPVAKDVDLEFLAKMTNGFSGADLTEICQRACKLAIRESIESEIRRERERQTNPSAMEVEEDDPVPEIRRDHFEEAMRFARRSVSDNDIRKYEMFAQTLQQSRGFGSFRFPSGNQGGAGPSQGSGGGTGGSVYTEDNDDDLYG

As a reminder, the Papp A→B is the apparent permeability from the apical to the basolateral side of a cell layer. Low readings indicate slow passage, high ones fast passage. Usually Papp B→A stands for the apparent permeability from the basolateral to the apical side of a cell layer. Regarding `CC(C)NCC(O)COc1cccc2ccccc12` (centres unmarked) [Propranolol], the “Peff A B, Range” value in data set [1] (pH 7.4 Caco-2, A to B) was 18.50-36.80 ×E−6 cm/sec. Further, the “Peff B A, Range” value in data set [1] (pH 7.4 Caco-2, B to A) was 16.30-31.40 ×E−6 cm/sec. In data set [2], this molecule returned a Papp A→B at 90 min, 100 μM of 28.5 ×10⁻⁶ cm/s and a Papp B→A at 90 min, 100 μM of 20.9 ×10⁻⁶ cm/s.
Usually IC50 stands for the concentration that gives 50% inhibition. Low readings indicate higher potency, high ones lower potency. Turning to `Cc1cc2c(S(C)(=O)=O)cccc2n1-c1nc2c(c(NCc3ccccc3)n1)CCCC2` [compound 111, N-benzyl-2-(4-methanesulfonyl-2-methyl-1H-indol-1-yl)-5,6,7,8-tetrahydroquinazolin-4-amine], the IC50 is less than 100 nM in data set [3] and less than 10 µM in data set [4].
Regarding `CCc1cc2c(C(N)=O)cccc2n1-c1nc2c(c(NCc3ccccc3)n1)CCCC2` [compound 112, 1-[4-(benzylamino)-5,6,7,8-tetrahydroquinazolin-2-yl]-2-ethyl-1H-indole-4-carboxamide], the IC50 in data set [3] is less than 100 nM; in data set [4], less than 10 µM.
The like results for `CCc1cc2c(C(N)=O)cccc2n1-c1nc2c(c(NCc3ccccc3)n1)COCC2` [compound 113, 1-[4-(benzylamino)-5H,7H,8H-pyrano[4,3-d]pyrimidin-2-yl]-2-ethyl-1H-indole-4-carboxamide] were, in that order, less than 300 nM and less than 10 µM.
The like results for `COc1nc2c(C(N)=O)cccc2n1-c1nc2c(c(NCc3ccccc3)n1)CCCC2` [compound 114, 1-[4-(benzylamino)-5,6,7,8-tetrahydroquinazolin-2-yl]-2-methoxy-1H-1,3-benzodiazole-4-carboxamide] were, in that order, less than 30 nM and less than 10 µM.
In the case of `Cc1cc2c(S(C)(=O)=O)cccc2n1-c1nc2c(c(NCc3ccccc3)n1)COCC2` [compound 118, N-benzyl-2-(4-methanesulfonyl-2-methyl-1H-indol-1-yl)-5H,7H,8H-pyrano[4,3-d]pyrimidin-4-amine], the values for the IC50 in data set [3] and in data set [4] were less than 300 nM and less than 10 µM, respectively.
The like results for `Cc1cc2c(C(N)=O)cccc2n1-c1nc2c(c(NCc3ccc(F)cc3)n1)COCC2` [compound 122, 1-(4-{[(4-fluorophenyl)methyl]amino}-5H,7H,8H-pyrano[4,3-d]pyrimidin-2-yl)-2-methyl-1H-indole-4-carboxamide] were, in that order, less than 100 nM and less than 10 µM.
The like results for `Cc1cc2c(C(N)=O)cccc2n1-c1nc2c(c(NCc3ccccc3F)n1)COCC2` [compound 123, 1-(4-{[(2-fluorophenyl)methyl]amino}-5H,7H,8H-pyrano[4,3-d]pyrimidin-2-yl)-2-methyl-1H-indole-4-carboxamide] were, in that order, less than 100 nM and less than 10 µM.
Taken in the same sequence, the figures for `Cc1cc2c(CN)cccc2n1-c1nc2c(c(NCc3ccccc3)n1)CCCC2` [compound 124, 2-[4-(aminomethyl)-2-methyl-1H-indol-1-yl]-N-benzyl-5,6,7,8-tetrahydroquinazolin-4-amine] were less than 100 nM and less than 10 µM.
Consider `CC(C)c1cc2c(C(N)=O)cccc2n1-c1nc2c(c(NCc3ccccc3)n1)CCCC2` [compound 128, 1-[4-(benzylamino)-5,6,7,8-tetrahydroquinazolin-2-yl]-2-(propan-2-yl)-1H-indole-4-carboxamide], for which the IC50 in data set [3] was less than 100 nM; in data set [4] it was less than 10 µM.
The like results for `NC(=O)c1cccc2c1cc(C1CC1)n2-c1nc2c(c(NCc3ccccc3)n1)CCCC2` [compound 130, 1-[4-(benzylamino)-5,6,7,8-tetrahydroquinazolin-2-yl]-2-cyclopropyl-1H-indole-4-carboxamide] were, in that order, less than 30 nM and less than 10 µM.
On to `CNC(=O)c1cccc2c1cc(C)n2-c1nc2c(c(NCc3ccccc3)n1)CCCC2` [compound 132, 1-[4-(benzylamino)-5,6,7,8-tetrahydroquinazolin-2-yl]-N-methyl-2-methyl-1H-indole-4-carboxamide], for which the concentration for half-maximal inhibition (IC50) in data set [3] is less than 30 nM; in data set [4], less than 10 µM.
Regarding `CCNC(=O)c1cccc2c1cc(C)n2-c1nc2c(c(NCc3ccccc3)n1)CCCC2` [compound 134, 1-[4-(benzylamino)-5,6,7,8-tetrahydroquinazolin-2-yl]-N-ethyl-2-methyl-1H-indole-4-carboxamide], the IC50 in data set [3] is less than 30 nM; in data set [4] it was less than 10 µM.
The like results for `Cc1cc2c(C(N)=O)cccc2n1-c1nc2c(c(NCc3cccc(F)c3)n1)COCC2` [compound 136, 1-(4-{[(3-fluorophenyl)methyl]amino}-5H,7H,8H-pyrano[4,3-d]pyrimidin-2-yl)-2-methyl-1H-indole-4-carboxamide] were, in that order, less than 30 nM and less than 10 µM.
Taken in the same sequence, the figures for `COCCOc1cc2c(C#N)cccc2n1-c1nc2c(c(NCc3ccccc3)n1)CCCC2` [compound 137, 1-[4-(benzylamino)-5,6,7,8-tetrahydroquinazolin-2-yl]-2-(2-methoxyethoxy)-1H-indole-4-carbonitrile] were less than 30 nM and less than 10 µM.
